Source: ChEMBL document CHEMBL3885861, “Open TG-GATES”

Organism: Rattus norvegicus
Assay: Open TG-GATES - Regimen: Single
Format: toxicity, organism-based, Sprague-Dawley
Set-up: regimen Single, gender Male, age 6 weeks
Settings: in vivo, po, 150 mg/kg, route gavage, dose level High; for APTT / Bas / Eos / Fbg / Hb / Ht / Lym / MCH / MCHC / MCV / Mono / Neu / PT / Plat / RBC / Ret / WBC: tissue Blood; for KIDNEY_L / KIDNEY_R / KIDNEY_TOTAL: tissue Kidney; for LIVER: tissue Liver; for A/G / ALP / ALT / AST / BUN / CRE / Ca / Cl / DBIL / GLC / IP / K / LDH / Na / PL / RALB / TBIL / TC / TG / TP / gamma-GTP: tissue Plasma

O=c1ccc2ccccc2o1 [COUMARIN]
TERMINAL_BW (3 h): 182 g
APTT (3 h): 16 s
Bas (3 h): 0%
Eos (3 h): 0.6%
Fbg (3 h): 201.2 mg/dL
Hb (3 h): 13.9 g/dL
Ht (3 h): 42.2%
Lym (3 h): 73.6%
MCH (3 h): 22.2 pg
MCHC (3 h): 33%
MCV (3 h): 67.3 fL
Mono (3 h): 5%
Neu (3 h): 20.8%
PT (3 h): 12.6 s
Plat (3 h): 131.8 x10_4/uL
RBC (3 h): 627.6 x10_4/ul
Ret (3 h): 9.9%
WBC (3 h): 86 x10_2/uL
KIDNEY_L (3 h): 0.8 g
KIDNEY_R (3 h): 0.9 g
KIDNEY_TOTAL (3 h): 1.7 g
LIVER (3 h): 8.3 g
A/G (3 h): 2.1
ALP (3 h): 1017.8 IU/L
ALT (3 h): 45.4 IU/L
AST (3 h): 76.4 IU/L
BUN (3 h): 11.4 mg/dL
CRE (3 h): 0.4 mg/dL
Ca (3 h): 10.7 mg/dL
Cl (3 h): 100.6 meq/L
DBIL (3 h): 0 mg/dL
GLC (3 h): 220.8 mg/dL
IP (3 h): 11.2 mg/dL
K (3 h): 4.3 meq/L
LDH (3 h): 175 IU/L
Na (3 h): 137.8 meq/L
PL (3 h): 158.4 mg/dL
RALB (3 h): 3.8 g/dL
TBIL (3 h): 0.2 mg/dL
TC (3 h): 89.6 mg/dL
TG (3 h): 53 mg/dL
TP (3 h): 5.7 g/dL
gamma-GTP (3 h): 1.6 IU/L
TERMINAL_BW (6 h): 176.6 g
APTT (6 h): 16.5 s
Bas (6 h): 0%
Eos (6 h): 0.6%
Fbg (6 h): 210.4 mg/dL
Hb (6 h): 14.8 g/dL
Ht (6 h): 44.4%
Lym (6 h): 68.4%
MCH (6 h): 21.4 pg
MCHC (6 h): 33.2%
MCV (6 h): 64.4 fL
Mono (6 h): 7.4%
Neu (6 h): 24.2%
PT (6 h): 13 s
Plat (6 h): 111.1 x10_4/uL
RBC (6 h): 690.2 x10_4/ul
Ret (6 h): 8.7%
WBC (6 h): 61.8 x10_2/uL
KIDNEY_L (6 h): 0.8 g
KIDNEY_R (6 h): 0.8 g
KIDNEY_TOTAL (6 h): 1.6 g
LIVER (6 h): 7.3 g
A/G (6 h): 2.2
ALP (6 h): 951.6 IU/L
ALT (6 h): 45.2 IU/L
AST (6 h): 77.6 IU/L
BUN (6 h): 16 mg/dL
CRE (6 h): 0.5 mg/dL
Ca (6 h): 10.3 mg/dL
Cl (6 h): 102.4 meq/L
DBIL (6 h): 0.008 mg/dL
GLC (6 h): 190.6 mg/dL
IP (6 h): 10.1 mg/dL
K (6 h): 4.5 meq/L
LDH (6 h): 203.2 IU/L
Na (6 h): 138 meq/L
PL (6 h): 144.2 mg/dL
RALB (6 h): 4 g/dL
TBIL (6 h): 0.2 mg/dL
TC (6 h): 94.4 mg/dL
TG (6 h): 23.4 mg/dL
TP (6 h): 5.9 g/dL
gamma-GTP (6 h): 1.4 IU/L
TERMINAL_BW (9 h): 175.4 g
APTT (9 h): 16.4 s
Bas (9 h): 0%
Eos (9 h): 1%
Fbg (9 h): 196.4 mg/dL
Hb (9 h): 14.5 g/dL
Ht (9 h): 43.8%
Lym (9 h): 76.8%
MCH (9 h): 21.6 pg
MCHC (9 h): 33.1%
MCV (9 h): 65.2 fL
Mono (9 h): 8%
Neu (9 h): 14.4%
PT (9 h): 13.2 s
Plat (9 h): 100.6 x10_4/uL
RBC (9 h): 672.6 x10_4/ul
Ret (9 h): 9.7%
WBC (9 h): 79.6 x10_2/uL
KIDNEY_L (9 h): 0.8 g
KIDNEY_R (9 h): 0.8 g
KIDNEY_TOTAL (9 h): 1.6 g
LIVER (9 h): 7.3 g
A/G (9 h): 2.1
ALP (9 h): 950 IU/L
ALT (9 h): 37.4 IU/L
AST (9 h): 75.8 IU/L
BUN (9 h): 15.2 mg/dL
CRE (9 h): 0.5 mg/dL
Ca (9 h): 10.6 mg/dL
Cl (9 h): 102.4 meq/L
DBIL (9 h): 0.04 mg/dL
GLC (9 h): 182.8 mg/dL
IP (9 h): 9.8 mg/dL
K (9 h): 4.4 meq/L
LDH (9 h): 153.2 IU/L
Na (9 h): 137.4 meq/L
PL (9 h): 147.2 mg/dL
RALB (9 h): 3.8 g/dL
TBIL (9 h): 0.3 mg/dL
TC (9 h): 93 mg/dL
TG (9 h): 22.4 mg/dL
TP (9 h): 5.6 g/dL
gamma-GTP (9 h): 1.2 IU/L
TERMINAL_BW (24 h): 177.1 g
APTT (24 h): 16 s
Bas (24 h): 0%
Eos (24 h): 1.2%
Fbg (24 h): 181.2 mg/dL
Hb (24 h): 14 g/dL
Ht (24 h): 42%
Lym (24 h): 77.2%
MCH (24 h): 21.6 pg
MCHC (24 h): 33.2%
MCV (24 h): 65.1 fL
Mono (24 h): 9.6%
Neu (24 h): 12.6%
PT (24 h): 12.9 s
Plat (24 h): 118.7 x10_4/uL
RBC (24 h): 645.8 x10_4/ul
Ret (24 h): 7.5%
WBC (24 h): 85.4 x10_2/uL
KIDNEY_L (24 h): 0.8 g
KIDNEY_R (24 h): 0.9 g
KIDNEY_TOTAL (24 h): 1.7 g
LIVER (24 h): 8.5 g
A/G (24 h): 2.1
ALP (24 h): 1067.4 IU/L
ALT (24 h): 40.2 IU/L
AST (24 h): 85.8 IU/L
BUN (24 h): 15.6 mg/dL
CRE (24 h): 0.6 mg/dL
Ca (24 h): 11 mg/dL
Cl (24 h): 105.2 meq/L
DBIL (24 h): 0.016 mg/dL
GLC (24 h): 179 mg/dL
IP (24 h): 8.6 mg/dL
K (24 h): 5.3 meq/L
LDH (24 h): 202.8 IU/L
Na (24 h): 137.8 meq/L
PL (24 h): 121.2 mg/dL
RALB (24 h): 3.7 g/dL
TBIL (24 h): 0.4 mg/dL
TC (24 h): 68.2 mg/dL
TG (24 h): 42.6 mg/dL
TP (24 h): 5.5 g/dL
gamma-GTP (24 h): 1.2 IU/L
